US12336981B2, “Compounds and compositions for the inhibition of NAMPT” (Valo Health, Inc., priority 2010, dated 2025)
Where two headings read alike, the source gives them in different places.

Columns and labels:
NAMPT = target: T1, NAMPT (Homo sapiens, UniProt P43490); test: Biochemical inhibition assay: NAMPT enzymatic reaction, NMN quantified by mass spectrometry; conditions: read-out: Biochem IC50
T1 construct: His tag; host or cells: E. coli
Method in brief: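 Inhibition of E. coli-expressed His-tagged human NAMPT, measured as NMN formation by mass spectrometry after a 30 min room-temperature reaction containing 1 μM NAM, 100 μM PRPP and 2.5 mM ATP.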

A2780 cells = test: In-vitro cell proliferation assay (SRB), A2780 cells; type: cell-based; conditions: Homo sapiens, A2780, 72 h, A2780 cells, 72 hours, read-out: A2780 IC50
Method in brief: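 Viable cells measured by SRB staining after 6% TCA fixation, absorbance 570 nm. Media-only background subtracted; % inhibition derived at two compound concentrations.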

T1 sequence (P43490 whole entry): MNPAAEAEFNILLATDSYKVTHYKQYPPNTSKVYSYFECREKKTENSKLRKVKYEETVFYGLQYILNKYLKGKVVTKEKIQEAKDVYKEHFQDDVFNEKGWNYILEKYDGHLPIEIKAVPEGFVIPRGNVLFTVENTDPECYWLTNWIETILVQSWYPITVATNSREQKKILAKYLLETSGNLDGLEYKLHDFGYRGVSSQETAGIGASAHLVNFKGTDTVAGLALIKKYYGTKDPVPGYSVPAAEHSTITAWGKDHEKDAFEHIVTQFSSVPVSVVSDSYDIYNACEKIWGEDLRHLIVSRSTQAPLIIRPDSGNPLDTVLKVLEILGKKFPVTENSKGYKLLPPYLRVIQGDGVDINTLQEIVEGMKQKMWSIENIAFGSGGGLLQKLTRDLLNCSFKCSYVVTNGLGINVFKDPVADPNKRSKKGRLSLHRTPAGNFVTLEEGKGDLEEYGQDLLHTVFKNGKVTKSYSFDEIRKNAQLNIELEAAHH

**Q.** For O=C(NCc1ccc(S(=O)(=O)c2ccc(N3CCOCC3)nc2)cc1)c1cc2ccncc2o1 [N-({4-[6-(morpholin-4-yl)pyridine-3-sulfonyl]phenyl}methyl)furo[2,3-c]pyridine-2-carboxamide], which IC50 (NAMPT; NAMPT enzymatic assay) is on record?
**A.** 2 nM

**Q.** What about the IC50 (A2780 cells; SRB) of the same molecule?
**A.** 0.9 nM

**Q.** With COc1ccc(S(=O)(=O)c2ccc(CNC(=O)c3cnc4[nH]ncc4c3)cc2)cc1 as the molecule, how does the IC50 (NAMPT; NAMPT enzymatic reaction) read?
**A.** 20.9 nM

**Q.** And the IC50 (A2780 cells; SRB)?
**A.** 14.3 nM

**Q.** How did the IC50 (NAMPT; NAMPT enzymatic reaction) turn out when CCOc1ccc(S(=O)(=O)c2ccc(CNC(=O)c3cc4ccncc4s3)cc2)c(C)c1 was run?
**A.** 1.2 nM

**Q.** What about the IC50 (A2780 cells; SRB) of the same molecule?
**A.** 13.2 nM

**Q.** How did the IC50 (NAMPT; NAMPT enzymatic reaction) turn out when COc1cc(Cl)cc(S(=O)(=O)c2ccc(CNC(=O)c3cc4ccncc4o3)cc2)c1 was run?
**A.** 26.5 nM

**Q.** And the IC50 (A2780 cells; SRB)?
**A.** 1.5 nM

**Q.** Which results are given for COc1ccc(Cl)cc1S(=O)(=O)c1ccc(CNC(=O)c2cnc3[nH]ncc3c2)cc1?
**A.** IC50 (NAMPT; NAMPT enzymatic reaction): 49.2 nM; IC50 (A2780 cells; SRB): 8.1 nM

**Q.** For COc1c(C)cc(S(=O)(=O)c2ccc(CNC(=O)c3cc4ccncc4o3)cc2)cc1C, which IC50 (NAMPT; NAMPT enzymatic reaction) is on record?
**A.** 5.6 nM

**Q.** What about the IC50 (A2780 cells; SRB) of the same molecule?
**A.** 1.8 nM

**Q.** CN(C)Cc1cccc(S(=O)(=O)c2ccc(CNC(=O)c3cnc4nccn4c3)cc2)c1 was tested. Which IC50 (NAMPT; NAMPT enzymatic assay) did it give?
**A.** 4.4 nM

**Q.** What about the IC50 (A2780 cells; SRB) of the same molecule?
**A.** 66 nM

**Q.** Which results are given for CCN(C)c1ncc(S(=O)(=O)c2ccc(CNC(=O)c3cc4ccncc4s3)cc2)s1 [N-[(4-{2-[ethyl(methyl)amino]-1,3-thiazole-5-sulfonyl}phenyl)methyl]thieno[2,3-c]pyridine-2-carboxamide]?
**A.** IC50 (NAMPT; NAMPT enzymatic assay): 2.9 nM; IC50 (A2780 cells; SRB): 1.2 nM

**Q.** Which results are given for O=C(NCc1ccc(S(=O)(=O)c2ccc(-n3cccn3)c(F)c2)cc1)c1cc2ccncc2o1?
**A.** IC50 (NAMPT; NAMPT enzymatic assay): 17.3 nM; IC50 (A2780 cells; SRB): 5 nM

**Q.** Cc1cc(C)n(-c2cccc(S(=O)(=O)c3ccc(CNC(=O)c4cc5cc(O)ccc5[nH]4)cc3)c2)n1 was tested. Which IC50 (NAMPT; NAMPT enzymatic assay) did it give?
**A.** 100 to 1000 nM

**Q.** What about the IC50 (A2780 cells; SRB) of the same molecule?
**A.** 100 to 1000 nM

**Q.** COc1ccc2cc(S(=O)(=O)c3ccc(CNC(=O)c4cc5cnccc5[nH]4)cc3)ccc2c1 [N-{[4-(6-methoxynaphthalene-2-sulfonyl)phenyl]methyl}-1H-pyrrolo[3,2-c]pyridine-2-carboxamide] was tested. Which IC50 (NAMPT; NAMPT enzymatic assay) did it give?
**A.** 9.9 nM

**Q.** And the IC50 (A2780 cells; SRB)?
**A.** 5.1 nM

**Q.** Which IC50 (NAMPT; NAMPT enzymatic reaction) does the source give for COc1cc(F)ccc1S(=O)(=O)c1ccc(CNC(=O)c2ccc3nccn3c2)cc1 [N-({4-[(4-fluoro-2-methoxybenzene)sulfonyl]phenyl}methyl)imidazo[1,2-a]pyridine-6-carboxamide] here?
**A.** 19.3 nM

**Q.** What about the IC50 (A2780 cells; SRB) of the same molecule?
**A.** 7.05 nM

**Q.** COc1cccc(Cl)c1S(=O)(=O)c1ccc(CNC(=O)c2cc3ccncc3s2)cc1 was tested. Which IC50 (NAMPT; NAMPT enzymatic reaction) did it give?
**A.** 2.7 nM

**Q.** What about the IC50 (A2780 cells; SRB) of the same molecule?
**A.** 2.9 nM

**Q.** Which IC50 (NAMPT; NAMPT enzymatic assay) does the source give for O=C(NCc1ccc(S(=O)(=O)c2cccc(OC(F)(F)F)c2)cc1)c1cnc2[nH]ncc2c1 here?
**A.** 20.4 nM

**Q.** And the IC50 (A2780 cells; SRB)?
**A.** 7.1 nM

**Q.** What does the source list for CC(C)CNC(=O)c1cccc(S(=O)(=O)c2ccc(CNC(=O)c3cc4cnccc4[nH]3)cc2)c1?
**A.** IC50 (NAMPT; NAMPT enzymatic assay): 19.3 nM; IC50 (A2780 cells; SRB): 45.8 nM

**Q.** For CC(=O)c1ccc(S(=O)(=O)c2ccc(CNC(=O)c3cnc4nccn4c3)cc2)cc1, which IC50 (NAMPT; NAMPT enzymatic reaction) is on record?
**A.** 5.2 nM

**Q.** What about the IC50 (A2780 cells; SRB) of the same molecule?
**A.** 6.5 nM

**Q.** How did the IC50 (NAMPT; NAMPT enzymatic reaction) turn out when Cc1cc(C)cc(S(=O)(=O)c2ccc(CNC(=O)c3cc4ccncc4s3)cc2)c1 [N-({4-[(3,5-dimethylbenzene)sulfonyl]phenyl}methyl)thieno[2,3-c]pyridine-2-carboxamide] was run?
**A.** 5 nM

**Q.** And the IC50 (A2780 cells; SRB assay)?
**A.** 1.8 nM

**Q.** COc1ccc(Cl)c(S(=O)(=O)c2ccc(CNC(=O)c3ccc4nccn4c3)cc2)c1 was tested. Which IC50 (NAMPT; NAMPT enzymatic reaction) did it give?
**A.** 5.6 nM

**Q.** And the IC50 (A2780 cells; SRB)?
**A.** 2.7 nM

**Q.** With O=C(NCc1ccc(S(=O)(=O)c2cc(F)cc(F)c2)cc1)c1cnc2nccn2c1 as the molecule, how does the IC50 (NAMPT; NAMPT enzymatic reaction) read?
**A.** 2 nM

**Q.** And the IC50 (A2780 cells; SRB)?
**A.** 3 nM

**Q.** Which IC50 (NAMPT; NAMPT enzymatic reaction) does the source give for Cc1c(F)cccc1S(=O)(=O)c1ccc(CNC(=O)c2cc3ccncc3o2)cc1 here?
**A.** 13.2 nM

**Q.** And the IC50 (A2780 cells; SRB)?
**A.** 30.7 nM

**Q.** Which IC50 (NAMPT; NAMPT enzymatic reaction) does the source give for CCOc1cccc(S(=O)(=O)c2ccc(CNC(=O)c3cc4cnccc4[nH]3)cc2)c1F here?
**A.** 31.2 nM

**Q.** What about the IC50 (A2780 cells; SRB) of the same molecule?
**A.** 11.6 nM

**Q.** How did the IC50 (NAMPT; NAMPT enzymatic reaction) turn out when CCCCOc1ccc(S(=O)(=O)c2ccc(CNC(=O)c3cc4ccncc4o3)cc2)cc1 [N-({4-[(4-butoxybenzene)sulfonyl]phenyl}methyl)furo[2,3-c]pyridine-2-carboxamide] was run?
**A.** 6.2 nM

**Q.** What about the IC50 (A2780 cells; SRB) of the same molecule?
**A.** 13 nM

**Q.** What does the source list for O=C(NCc1ccc(S(=O)(=O)c2ccc(-n3cccn3)c(F)c2)cc1)c1cc2cnccc2[nH]1 [N-[(4-{[3-fluoro-4-(1H-pyrazol-1-yl)benzene]sulfonyl}phenyl)methyl]-1H-pyrrolo[3,2-c]pyridine-2-carboxamide]?
**A.** IC50 (NAMPT; NAMPT enzymatic reaction): 11 nM; IC50 (A2780 cells; SRB assay): 4 nM
